Results taken from US20250223303A1, “TRICYCLIC BORONIC ACID DERIVATIVE, AND PREPARATION METHOD THEREFOR AND APPLICATION THEREOF” (priority 2021, published 2025).

How the values were obtained:
[1] = system: Acinetobacter baumannii ARLG-1853 OXA-23; test: MIC test of compounds in combination with antibiotics, Acinetobacter baumannii ARLG-1853; conditions: Acinetobacter baumannii ARLG-1853 OXA-23
Procedure: (§1) 2-Fold gradient dilution of antibiotics: 300 μL of CAMHVIB medium was added to columns 2-12 of a 96-deep well plate. In column 1, 24 μL of antibiotic stock solution and 576 µL of CAMHB medium were added and mixed well, with a concentration of 512 μg/mL. 300 µL of antibiotic solution was transferred from the column 1 to the second column and mixed well. The process was repeated until column 11, and the column 12 was a blank control.
(§2) Dilution of combined compounds: the compound was diluted 400-fold to 32 μg/ml with CAMHB medium.
(§3) Working solution aliquoting: 25 μL of antibiotics was aliquoted into the 96-U bottom plate with a pipette, and 25 μL of combined compound was added to each well. If antibiotics were used alone, 25 μL of CAMHB medium was added.
(§4) Inoculum solution preparation: 5-6 single colonies were selected from the plate and suspended in normal saline. The bacterial suspension was adjusted to 0.2 (i.e., 0.5 McFarland turbidity, with a bacterial concentration was about 1 to 2×10^8 CFU/mL) with a turbidity meter. The bacterial suspension was diluted 100-fold with CAMHB medium for later use.
(§5) Inoculation: 50 μL of inoculum solution was transferred to the above 50 μL compound plate with a pipette.
(§6) Culture: The 96-U bottom plate was placed in an incubator at 37° C. for 18 to 20 h.

[2] = system: Escherichia coli ARLG 2829; test: MIC test of compounds in combination with antibiotics, Escherichia coli ARLG 2829; conditions: Escherichia coli ARLG-2829 NDM-5, OXA-1
[3] = system: Klebsiella pneumoniae ATCC BAA-2470; test: MIC test of compounds in combination with antibiotics, Klebsiella pneumoniae ATCC BAA-2470; conditions: Klebsiella pneumoniae ATCC BAA-2470 NDM-1
Procedure: Strain preparation: the strains to be tested were streaked from glycerol tube at −80° C. onto Mueller Hinton II Agar plates. The plates were then placed in a 37° C. incubator and cultured for 18-24 hours.
Media preparation: CAMHB (Mueller Hinton II Broth): 22 g of powder was dissolved in 1 L of purified water and sterilized at 121° C. for 10 min for use. Saline: 8.5 g NaCl was dissolved in 1 L of pure water and sterilized at 121° C. for 30 min for use.
Preparation of compound and antibiotic stock solutions: the compound and antibiotic were dissolved in DMSO or water to 12.8 mg/mL.
as §1, §2, §3, §4, §5, §6
After the incubation, bacterial growth was visually observed, and the test plate was photographed and recorded.

[4] = system: Klebsiella pneumoniae ATCC BAA-1705; test: MIC test of compounds in combination with antibiotics, Klebsiella pneumoniae ATCC BAA-1705; conditions: Klebsiella pneumoniae ATCC BAA-1705 KPC-2

NCCNC1CCC(CC(=O)N[C@H]2Cc3cccc(C(=O)O)c3OB2O)CC1 (some centres unmarked) [VNRX-5133, reference compound]
MIC ([1]; Cefepime + compound (8 μg/mL)): 32 µg/mL | MIC ([1]; Meropenem + compound (8 μg/mL)): 128 µg/mL | MIC ([2]; Cefepime + compound (8 μg/mL)): 1 µg/mL | MIC ([2]; Meropenem + compound (8 μg/mL)): 1 µg/mL | MIC ([3]; Cefepime + compound (8 μg/mL)): 1 µg/mL | MIC ([3]; Meropenem + compound (8 μg/mL)): 1 µg/mL | MIC ([4]; Cefepime + compound (8 μg/mL)): 0.25 µg/mL | MIC ([4]; Meropenem + compound (8 μg/mL)): 0.125 µg/mL
